The results in this text go back to ChEMBL document CHEMBL2074261, “Transcellular transport of organic anions across a double-transfected Madin-Darby canine kidney II cell monolayer expressing both human organic anion-transporting polypeptide (OATP2/SLC21A6) and Multidrug resistance-associated protein 2 (MRP2/ABCC2)” (J Biol Chem, 2002).

SMILES strings stand for the structures.

The data set addresses Canalicular multispecific organic anion transporter 1/Solute carrier organic anion transporter family member 1B1 (Homo sapiens, UniProt Q92887+Q9Y6L6). In words: TP_TRANSPORTER: transepithelial transport (basal to apical) in MRP2- and OATP-C-expressing MDCKII cells. The data set is classed as functional, cell-based. As to conditions: dog, mdck-ii.

Regarding `C[C@H](CCC(=O)NCCS(=O)(=O)O)C1CC[C@H]2[C@@H]3CC[C@@H]4C[C@H](OS(=O)(=O)O)CC[C@]4(C)[C@H]3CC[C@]12C` (some centres not stated), the Activity entry is “substrate [+]”. Then `CC[C@H](C)C(=O)O[C@H]1C[C@H](O)C=C2C=C[C@H](C)[C@H](CC[C@@H](O)C[C@@H](O)CC(=O)O)[C@H]21` [PRAVASTATIN], with “substrate [+]”.
